Data as given in ChEMBL document CHEMBL1201862, “PubChem BioAssay data set” (2004).
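Grown in 96-well plates, cells were treated for 48 hours with each compound at five concentrations. Insufficient inhibition: endpoint recorded as highest concentration tested. GI50 is the concentration that inhibits growth by half.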 Active and inactive are the calls of the source. Cut-off read from the data, not from the text of the source: active = GI50 up to about 1.1 µM and inactive = higher.

Assays:
Test in all cases: NCI tumour cell line growth inhibition, 48 h
HOP-62 = system: HOP-62
U-251 = system: U-251
SNB-19 = system: SNB-19
K562 = system: K562
T47D = system: T47D
TK-10 = system: TK-10
ACHN = system: ACHN
HCC 2998 = system: HCC 2998
RPMI-8226 = system: RPMI-8226
SF-539 = system: SF-539
PC-3 = system: PC-3
SK-MEL-5 = system: SK-MEL-5
HL-60 = system: HL-60
DU-145 = system: DU-145
NCI-H460 = system: NCI-H460
Hs-578T = system: Hs-578T
SF-295 = system: SF-295
OVCAR-4 = system: OVCAR-4
HOP-92 = system: HOP-92
RXF 393 = system: RXF 393

Measured: GI50

S=c1sc2c(s1)SCc1cccc(n1)CSc1sc(=S)sc1SCc1cccc(n1)CS2
inactive: HOP-62 > 100 µM | U-251 > 100 µM | SNB-19 > 100 µM | K562 > 100 µM | T47D > 100 µM | TK-10 > 100 µM | ACHN > 100 µM | HCC 2998 > 100 µM | RPMI-8226 > 100 µM | SF-539 > 100 µM | PC-3 > 100 µM | SK-MEL-5 > 100 µM | HL-60 > 100 µM | DU-145 > 100 µM | NCI-H460 > 100 µM | Hs-578T > 100 µM | SF-295 > 100 µM

O=[N+]([O-])c1cccc(/N=N/c2c(O)ccc3ccccc23)c1
inactive: OVCAR-4 66.8 µM | HOP-62 35 µM | HOP-92 48.1 µM | U-251 19.6 µM | RXF 393 91.2 µM | SNB-19 25.4 µM | K562 69 µM | T47D > 100 µM | TK-10 44.7 µM | RPMI-8226 54.2 µM | PC-3 55 µM | SK-MEL-5 75.7 µM | DU-145 > 100 µM | Hs-578T 49.5 µM | SF-295 31 µM

c1cc(-c2sc(-c3ccncc3)c(-c3ccncc3)c2-c2ccncc2)ccn1
inactive: OVCAR-4 33 µM | HOP-62 18.5 µM | HOP-92 11.4 µM | U-251 14.1 µM | RXF 393 16.3 µM | SNB-19 18.4 µM | K562 28.2 µM | T47D 32.4 µM | TK-10 15.2 µM | ACHN 14.8 µM | HCC 2998 3.27 µM | RPMI-8226 33.9 µM | SF-539 12.5 µM | PC-3 19.8 µM | SK-MEL-5 14.7 µM | DU-145 23 µM | NCI-H460 10.8 µM | Hs-578T 22.3 µM | SF-295 17.3 µM

O=C(O)CCCc1ccc2c(c1)CC1(C2)Cc2cc3c(cc2C1)CCCC3
inactive: OVCAR-4 19.5 µM | HOP-62 1.98 µM | HOP-92 23.7 µM | U-251 16.7 µM | RXF 393 13.2 µM | K562 11.2 µM | T47D 35.6 µM | TK-10 42.7 µM | ACHN 17 µM | HCC 2998 19.8 µM | RPMI-8226 28 µM | SF-539 2.06 µM | PC-3 24.6 µM | SK-MEL-5 13.8 µM | HL-60 11.6 µM | Hs-578T > 100 µM | SF-295 23.9 µM

Cc1cccc(-n2c(C)nc3ccc(NC(=S)Nc4ccccc4)cc3c2=O)c1
inactive: OVCAR-4 60.8 µM | HOP-62 > 100 µM | U-251 > 100 µM | RXF 393 62.4 µM | SNB-19 > 100 µM | K562 50.1 µM | T47D 38 µM | TK-10 > 100 µM | ACHN 53.5 µM | HCC 2998 25 µM | RPMI-8226 35.2 µM | PC-3 41.6 µM | SK-MEL-5 18.2 µM | HL-60 37.4 µM | DU-145 87.7 µM | NCI-H460 11 µM | Hs-578T > 100 µM | SF-295 > 100 µM

O=C(CSc1nnc(-c2ccccn2)s1)N/N=C/c1ccccc1
inactive: OVCAR-4 > 100 µM | HOP-62 51.5 µM | HOP-92 86.7 µM | U-251 54.5 µM | SNB-19 > 100 µM | K562 > 100 µM | T47D 46.8 µM | TK-10 89.1 µM | ACHN 89.3 µM | SF-539 > 100 µM | PC-3 > 100 µM | SK-MEL-5 > 100 µM | DU-145 > 100 µM | NCI-H460 > 100 µM | Hs-578T > 100 µM | SF-295 > 100 µM

CC1=C(CO)C(=O)O[C@@H]([C@@H](CO)[C@H]2CCC3C4C[C@@H](O)[C@@]5(O)CC=CC(=O)[C@]5(C)C4CC[C@@]32C)C1 (stereo partly specified)
inactive: OVCAR-4 91.8 µM | HOP-62 23.5 µM | HOP-92 71 µM | RXF 393 15.2 µM | SNB-19 > 100 µM | K562 31.8 µM | T47D 86.3 µM | TK-10 > 100 µM | ACHN 36.4 µM | HCC 2998 29.2 µM | RPMI-8226 34.3 µM | SF-539 53.8 µM | SK-MEL-5 51.4 µM | HL-60 31.2 µM | DU-145 > 100 µM | Hs-578T 59.2 µM | SF-295 > 100 µM

CSC1=N[C@H](c2ccccc2)CS1
inactive: OVCAR-4 > 100 µM | HOP-62 > 100 µM | U-251 > 100 µM | SNB-19 > 100 µM | K562 > 100 µM | T47D > 100 µM | TK-10 > 100 µM | ACHN > 100 µM | HCC 2998 > 100 µM | RPMI-8226 > 100 µM | SF-539 > 100 µM | PC-3 > 100 µM | SK-MEL-5 > 100 µM | DU-145 > 100 µM | NCI-H460 > 100 µM | Hs-578T > 100 µM | SF-295 > 100 µM

O=C(CP(c1ccccc1)c1ccccc1)c1cccc(C(=O)CP(c2ccccc2)c2ccccc2)c1
inactive: OVCAR-4 26.1 µM | HOP-62 96.6 µM | U-251 58.5 µM | RXF 393 61.7 µM | SNB-19 43.8 µM | K562 8.02 µM | T47D 14.2 µM | TK-10 > 100 µM | ACHN 84.1 µM | HCC 2998 74.1 µM | RPMI-8226 12.6 µM | SF-539 > 100 µM | PC-3 37.2 µM | SK-MEL-5 23.4 µM | HL-60 16.2 µM | DU-145 55.8 µM | NCI-H460 19.7 µM | Hs-578T 62.7 µM | SF-295 26.1 µM

CCOC(=O)c1nc2ccccc2nc1NCc1ccc(OC)cc1
inactive: OVCAR-4 > 100 µM | HOP-62 > 100 µM | HOP-92 > 100 µM | U-251 64.3 µM | RXF 393 23.4 µM | K562 > 100 µM | T47D 80.9 µM | TK-10 17 µM | ACHN > 100 µM | HCC 2998 > 100 µM | RPMI-8226 > 100 µM | SF-539 > 100 µM | SK-MEL-5 > 100 µM | HL-60 > 100 µM | DU-145 > 100 µM | NCI-H460 82.8 µM | Hs-578T 40.5 µM | SF-295 > 100 µM

CS(=O)(=O)c1nc(-c2cc3c(c(S(C)(=O)=O)n2)CCCC3)cc2c1CCCC2
inactive: OVCAR-4 > 100 µM | HOP-62 21 µM | U-251 > 55.3 µM | RXF 393 26.1 µM | SNB-19 > 55.7 µM | K562 > 100 µM | T47D > 100 µM | TK-10 > 64.6 µM | ACHN > 100 µM | HCC 2998 > 100 µM | RPMI-8226 > 100 µM | SF-539 > 65.2 µM | PC-3 > 100 µM | SK-MEL-5 > 100 µM | HL-60 > 100 µM | DU-145 > 100 µM | Hs-578T 12.4 µM | SF-295 33.6 µM
